#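 Five concentrations, 48 hours, 96-well plates. GI50 marks 50% less growth.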 Activity calls are given as the source filed them. No stated cut-off is given here; in the data, active = GI50 up to about 1.1 µM and inactive = higher.
# Assays:
# Test in all cases: DTP human tumour cell line panel, 48 h
# OVCAR-8 = system: OVCAR-8
# UO-31 = system: UO-31
# KM12 = system: KM12
# MOLT-4 = system: MOLT-4
# HOP-62 = system: HOP-62
# CCRF-CEM = system: CCRF-CEM
# HL-60 = system: HL-60
# RPMI-8226 = system: RPMI-8226
# SK-MEL-28 = system: SK-MEL-28
# M14 = system: M14
# K562 = system: K562
# HCT-15 = system: HCT-15
# IGROV-1 = system: IGROV-1
# SN12C = system: SN12C
# SK-MEL-2 = system: SK-MEL-2
# U-251 = system: U-251
# TK-10 = system: TK-10
# NCI-H226 = system: NCI-H226
SMILES,GI50 (OVCAR-8),GI50 (UO-31),GI50 (KM12),GI50 (MOLT-4),GI50 (HOP-62),GI50 (CCRF-CEM),GI50 (HL-60),GI50 (RPMI-8226),GI50 (SK-MEL-28),GI50 (M14),GI50 (K562),GI50 (HCT-15) [µM],GI50 (IGROV-1),GI50 (SN12C),GI50 (SK-MEL-2),GI50 (U-251),GI50 (TK-10),GI50 (NCI-H226)
CC1(C)OCN(c2ccc(S(N)(=O)=O)cc2)Cn2c1nc1ccccc12,> 100 µM (inactive),> 100 µM (inactive),> 100 µM (inactive),> 100 µM (inactive),> 100 µM (inactive),> 100 µM (inactive),> 100 µM (inactive),> 100 µM (inactive),> 100 µM (inactive),> 100 µM (inactive),> 100 µM (inactive),> 100,> 100 µM (inactive),> 100 µM (inactive),> 100 µM (inactive),> 100 µM (inactive),> 100 µM (inactive),> 100 µM (inactive)
COc1ccc(CNc2nc3c(NC(C)=O)cc(C(F)(F)F)cc3nc2-c2ccccc2)cc1OC,56.8 µM (inactive),7.45 µM (inactive),> 100 µM (inactive),> 100 µM (inactive),42.1 µM (inactive),> 100 µM (inactive),> 100 µM (inactive),68.5 µM (inactive),19 µM (inactive),42.8 µM (inactive),> 100 µM (inactive),> 100,> 100 µM (inactive),> 100 µM (inactive),57.7 µM (inactive),93.1 µM (inactive),32.1 µM (inactive),
Cc1ccc(/C=C/C(=O)c2sc(C(N)=S)nc2C)cc1,> 100 µM (inactive),> 100 µM (inactive),> 100 µM (inactive),> 100 µM (inactive),> 100 µM (inactive),> 100 µM (inactive),> 100 µM (inactive),> 100 µM (inactive),> 100 µM (inactive),,> 100 µM (inactive),> 100,> 100 µM (inactive),> 100 µM (inactive),> 100 µM (inactive),> 100 µM (inactive),> 100 µM (inactive),> 100 µM (inactive)
CC(C)(C)C(C#N)(C#N)c1ccc(C(C#N)(C#N)C(C)(C)C)nn1,> 100 µM (inactive),> 100 µM (inactive),> 100 µM (inactive),> 100 µM (inactive),> 100 µM (inactive),> 100 µM (inactive),> 100 µM (inactive),> 100 µM (inactive),> 100 µM (inactive),> 100 µM (inactive),> 100 µM (inactive),> 100,> 100 µM (inactive),> 100 µM (inactive),> 100 µM (inactive),,> 100 µM (inactive),
